Counter-ions that a name gives are not always drawn. Like-named read-outs stand apart in the source and are kept apart here.
Tests used:
[1] = tested on: Cullin-3 (CUL3) neddylation; assay: AlphaLISA assay for Cullin-3 (CUL3) neddylation in TF 1 cells; type: cell-based; details: 3 hours treatment
Procedure, shortened: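 TF 1 cells in unsupplemented IMDM treated with compound concentrations for 3 h, then lysed. CUL3 neddylation detected by AlphaLISA (biotinylated anti-NEDD8, anti-CUL3 acceptor beads overnight, streptavidin donor beads 1 h); normalized to vehicle (0%) and 1 μM DI-1548 (100%), IC50 from Hill fits.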

[2] = molecular target: DCN1 (DCUND1) protein PONY domain (Homo sapiens (Human), UniProt Q96GG9); assay: TR-FRET assay, DCN1 binding with FAM-labeled probe
Procedure, shortened: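 Tb-DCN1 PONY domain (E. coli, biotin/streptavidin-Tb); FAM-labelled non-covalent inhibitor probe; TritonX buffer, 200 mM NaCl; 5 nM DCN1 + 20 nM probe or 0.31 nM DCN1 + 900 nM total probe; 0.1% DMSO; TR-FRET read 1, 5, 24 hrs.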

[3] = 24 hr after treatment with compound, read-out: TR FRET IC50 24 hr
[4] = TR FRET IC50 1 hr (nM), 1 hr after treatment with compound
[5] = read-out: TR FRET IC50 1 hr, 1 hr after treatment with compound

Sequence of DCN1 (DCUND1) protein PONY domain (Q96GG9 60-248): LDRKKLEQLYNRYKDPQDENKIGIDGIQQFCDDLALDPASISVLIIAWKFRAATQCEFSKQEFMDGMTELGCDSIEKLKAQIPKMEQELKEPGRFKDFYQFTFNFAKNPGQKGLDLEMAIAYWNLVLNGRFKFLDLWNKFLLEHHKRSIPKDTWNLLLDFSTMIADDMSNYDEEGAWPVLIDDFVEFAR

## CCN1C(=O)[C@@H](NC(=O)c2cccc(C(F)(F)F)c2)[C@@H](c2ccc(F)cc2)c2c(CN(C#N)CCCCN(C)C)nn(-c3ccccc3)c21 (single isomer, unassigned) [Compound I-249, ˜{N}-[(4˜{S},5˜{R})-3-[[cyano-[4-(dimethylamino)butyl]amino]methyl]-7-ethyl-4-(4-fluorophenyl)-6-oxo-1-phenyl-4,5-dihydropyrazolo[3,4-b]pyridine-5-yl]-3-(trifluoromethyl)benzamide]
[1]; Homo sapiens, TF-1, 3 h
  IC50: 100 to 1000 nM
[2]; [3]
  IC50: 200 to 1000 nM
[2]; [4]
  IC50: 200 to 1000 nM

## CCN1C(=O)[C@@H](NC(=O)c2cccc(C(F)(F)F)c2)[C@@H](c2ccccn2)c2c(C(=O)N3CCC[C@H]3C#N)nn(-c3ccccc3)c21 (mixture of isomers) [Compound I-413]
[1]; Homo sapiens, TF-1, 3 h
  IC50: ≤ 100 nM
[2]; [3]
  IC50: ≤ 200 nM
[2]; [4]
  IC50: 1000 to 3000 nM

## CCN1C(=O)[C@@H](NC(=O)[C@@H]2CCc3nccc(=O)n32)[C@@H](C2CC2)c2c(C(=O)N3[C@H](C#N)C[C@H]4C[C@H]43)nn(C3CCOCC3)c21 [Compound I-548]
[1]; Homo sapiens, TF-1, 3 h
  IC50: > 1000 nM
[2]; [3]
  IC50: 1000 to 3000 nM
[2]; [4]
  IC50: 1000 to 3000 nM

## C[C@@H](NC#N)c1nn(-c2ccccc2)c2c1[C@@H](c1ccc(F)cc1)[C@@H](NC(=O)c1cccc(C(F)(F)F)c1)C(=O)N2CCO [Compound I-498]
[1]; Homo sapiens, TF-1, 3 h
  IC50: > 1000 nM
[2]; [3]
  IC50: 1000 to 3000 nM
[2]; [4]
  IC50: 1000 to 3000 nM

## CCN1C(=O)[C@@H](NC(=O)c2cccc(C(F)(F)F)c2)[C@@H](c2ccc(F)cc2)c2c(C(F)CNC#N)nn(-c3ccccc3)c21 (mixture of isomers) [Compound I-679]
[1]; Homo sapiens, TF-1, 3 h
  IC50: ≤ 100 nM
[2]; [3]
  IC50: ≤ 200 nM
[2]; [4]
  IC50: 200 to 1000 nM

## CCN1C(=O)[C@@H](NC(=O)c2cccc(C(F)(F)F)c2)[C@@H](c2ccc(F)cc2)c2c(CN(C)C/C=C/C(=O)OC(C)(C)C)nn(-c3ccccc3)c21 [Compound I-604, tert-butyl (E)-4-((((4S,5S)-7-ethyl-4-(4-fluorophenyl)-6-oxo-1-phenyl-5-(3-(trifluoromethyl)benzamido)-4,5,6,7-tetrahydro-1H-pyrazolo[3,4-b]pyridin-3-yl)methyl)(methyl)amino)but-2-enoate]
[1]; Homo sapiens, TF-1, 3 h
  IC50: > 1000 nM
[2]; [3]
  IC50: 1000 to 3000 nM
[2]; [4]
  IC50: 1000 to 3000 nM

## CCN1C(=O)[C@@H](NC(=O)c2cccc(C(F)(F)F)c2)[C@@H](C2CC2)c2c(C(=O)N3CCOC[C@@H]3C#N)nn(-c3ccccc3)c21 [Compound I-658]
[1]; Homo sapiens, TF-1, 3 h
  IC50: > 1000 nM
[2]; [3]
  IC50: 200 to 1000 nM
[2]; [4]
  IC50: 1000 to 3000 nM

## CCN1C(=O)[C@@H](NC(=O)c2cccc(C(F)(F)F)c2)[C@@H](C2CC2)c2c(C(=O)N3CCOC[C@@H]3C#N)nn(C3CCOCC3)c21 [Compound I-551]
[1]; Homo sapiens, TF-1, 3 h
  IC50: 100 to 1000 nM
[2]; [3]
  IC50: 200 to 1000 nM
[2]; [4]
  IC50: 200 to 1000 nM

## CCN1C(=O)[C@@H](NC(=O)c2cccn(C3CC3)c2=O)[C@@H](C2CC2)c2c(C(=O)N3[C@H](C#N)C[C@H]4C[C@H]43)nn(C3CCOCC3)c21 [Compound I-624]
[1]
  IC50: ≤ 100 nM
[2]; [3]
  IC50: 200 to 1000 nM
[2]; [4]
  IC50: 200 to 1000 nM

## CCN1C(=O)[C@H](NC(=O)c2cccc(C(F)(F)F)c2)[C@H](c2ccc(F)cc2)c2c(C(=O)N(CC#N)CC(=O)OC)nn(-c3ccccc3)c21 (stereo in doubt) [Compound I-406]
[1]; Homo sapiens, TF-1, 3 h
  IC50: 100 to 1000 nM
[2]; [3]
  IC50: ≤ 200 nM
[2]; [4]
  IC50: 200 to 1000 nM

## CCCn1nc(C(=O)N2CCC[C@H]2C#N)c2c1N(CC)C(=O)[C@H](NC(=O)c1cccc(C(F)(F)F)c1)[C@@H]2C1CC1 [Compound I-571]
[1]; Homo sapiens, TF-1, 3 h
  IC50: > 1000 nM
[2]; [3]
  IC50: 1000 to 3000 nM
[2]; [4]
  IC50: 1000 to 3000 nM

## CCN1C(=O)[C@@H](NC(=O)c2cccc(C(F)(F)F)c2)[C@@H](C2CC2)c2c(C(=O)N3CC(=O)C[C@H]3C#N)nn(C3CCOCC3)c21 [Compound I-626, N-((4S,5S)-3-((S)-2-cyano-4-oxopyrrolidine-1-carbonyl)-4-cyclopropyl-7-ethyl-6-oxo-1-(tetrahydro-2H-pyran-4-yl)-4,5,6,7-tetrahydro-1H-pyrazolo[3,4-b]pyridin-5-yl)-3-(trifluoromethyl)benzamide]
[1]; Homo sapiens, TF-1, 3 h
  IC50: ≤ 100 nM
[2]; [3]
  IC50: ≤ 200 nM
[2]; [5]
  IC50: ≤ 200 nM

## CCN1C(=O)[C@H](NC(=O)c2cccc(C(F)(F)F)c2)[C@H](c2ccc(F)cc2)c2c(C(=O)N3CCC[C@H]3C#N)nn(-c3cccc(OCCCN(C)C4COC4)c3)c21 [Compound I-480, N-((4R,5R)-3-((S)-2-cyanopyrrolidine-1-carbonyl)-7-ethyl-4-(4-fluorophenyl)-1-(3-(3-(methyl(oxetan-3-yl)amino)propoxy)phenyl)-6-oxo-4,5,6,7-tetrahydro-1H-pyrazolo[3,4-b]pyridin-5-yl)-3-(trifluoromethyl)benzamide]
[1]; Homo sapiens, TF-1, 3 h
  IC50: > 1000 nM
[2]; [3]
  IC50: 1000 to 3000 nM
[2]; [4]
  IC50: 1000 to 3000 nM

## CCN1C(=O)[C@H](NC(=O)c2cccc(C(F)(F)F)c2)[C@H](c2ccc(F)cc2)c2c(C(=O)N3[C@H](C#N)C[C@H]4C[C@H]43)nn([C@@H]3CCOC3)c21 (single isomer, unassigned) [Compound I-562]
[1]
  IC50: > 1000 nM
[2]; [3]
  IC50: 1000 to 3000 nM
[2]; [4]
  IC50: 1000 to 3000 nM

## CCN1C(=O)[C@@H](NC(=O)c2ccc3c(c2)COC3)[C@@H](C2CC2)c2c(C(=O)N3[C@H](C#N)C[C@H]4C[C@H]43)nn(C3CCOCC3)c21 [Compound I-600]
[1]; Homo sapiens, TF-1, 3 h
  IC50: ≤ 100 nM
[2]; [3]
  IC50: ≤ 200 nM
[2]; [4]
  IC50: 200 to 1000 nM

## CCN1C(=O)[C@@H](NC(=O)c2nccc(C(F)(F)F)n2)[C@H](c2ccc(F)cc2)c2c(CC(=O)N(C)CC#N)nn(-c3ccccc3)c21 [Compound I-640, N-((4R,5S)-3-(2-((cyanomethyl)(methyl)amino)-2-oxoethyl)-7-ethyl-4-(4-fluorophenyl)-6-oxo-1-phenyl-4,5,6,7-tetrahydro-1H-pyrazolo[3,4-b]pyridin-5-yl)-4-(trifluoromethyl)pyrimidine-2-carboxamide]
[1]; Homo sapiens, TF-1, 3 h
  IC50: 100 to 1000 nM
[2]; [3]
  IC50: 1000 to 3000 nM
[2]; [4]
  IC50: 1000 to 3000 nM

## CCN1C(=O)[C@@H](NC(=O)C(C2CC2)C2CC2)[C@@H](C2CC2)c2c(C(=O)N3[C@H](C#N)C[C@H]4C[C@H]43)nn(C3CCOCC3)c21 [Compound I-699]
[1]; Homo sapiens, TF-1, 3 h
  IC50: > 1000 nM
[2]; [3]
  IC50: 1000 to 3000 nM
[2]; [4]
  IC50: 1000 to 3000 nM

## CCN1C(=O)[C@H](NC(=O)c2cccc(C(F)(F)F)c2)[C@@H](c2ccc(F)cc2)c2c([C@@H](C)N(C#N)CCCN(C)C)nn(-c3ccccc3)c21 [Compound I-609, N-((4S,5R)-3-((R)-1-(N-(3-(dimethylamino)propyl)cyanamido)ethyl)-7-ethyl-4-(4-fluorophenyl)-6-oxo-1-phenyl-4,5,6,7-tetrahydro-1H-pyrazolo[3,4-b]pyridin-5-yl)-3-(trifluoromethyl)benzamide formate]
[1]; Homo sapiens, TF-1, 3 h
  IC50: > 1000 nM
[2]; [3]
  IC50: ≤ 200 nM
[2]; [5]
  IC50: ≤ 200 nM

## CN1C(=O)[C@@H](NC(=O)c2cccc(C(F)(F)F)c2)[C@@H](C2CC2)c2c(C(=O)N3[C@H](C#N)C[C@H]4C[C@H]43)nn(C3CCOCC3)c21 (relative stereo) [Compound I-650, N-((4S*,5S*)-3-((1R,3S,5R)-3-cyano-2-azabicyclo[3.1.0]hexane-2-carbonyl)-4-cyclopropyl-7-methyl-6-oxo-1-(tetrahydro-2H-pyran-4-yl)-4,5,6,7-tetrahydro-1H-pyrazolo[3,4-b]pyridin-5-yl)-3-(trifluoromethyl)benzamide]
[1]; Homo sapiens, TF-1, 3 h
  IC50: ≤ 100 nM
[2]; [3]
  IC50: ≤ 200 nM
[2]; [4]
  IC50: ≤ 200 nM

## CCN1C(=O)[C@@H](NC(=O)c2cccc(C(F)(F)F)c2)[C@@H](c2ccc(F)cc2)c2c([C@H](C)NC#N)nn(-c3ccccc3)c21 [Compound I-530]
[1]; Homo sapiens, TF-1, 3 h
  IC50: ≤ 100 nM
[2]; [3]
  IC50: ≤ 200 nM
[2]; [4]
  IC50: 200 to 1000 nM

## CCN1C(=O)[C@@H](NC(=O)c2cccc(C(F)(F)F)c2)[C@@H](c2ccc(F)cn2)c2c([C@@H](C)NC#N)nn(-c3ccccc3)c21 [Compound I-439]
[1]; Homo sapiens, TF-1, 3 h
  IC50: ≤ 100 nM
[2]; [3]
  IC50: ≤ 200 nM
[2]; [5]
  IC50: ≤ 200 nM

## CCN1C(=O)[C@H](NC(=O)c2cccc(C(F)(F)F)c2)[C@H](c2ccc(F)cc2)c2c(C(=O)N(CC#N)CCO)nn(-c3ccccc3)c21 (stereo in doubt) [Compound I-639]
[1]; Homo sapiens, TF-1, 3 h
  IC50: > 1000 nM
[2]; [3]
  IC50: 1000 to 3000 nM
[2]; [4]
  IC50: 1000 to 3000 nM

## CCN1C(=O)[C@@H](NC(=O)c2ccc3snnc3c2)[C@@H](C2CC2)c2c(C(=O)N3[C@H](C#N)C[C@H]4C[C@H]43)nn(C3CCOCC3)c21 [Compound I-706]
[1]; Homo sapiens, TF-1, 3 h
  IC50: ≤ 100 nM
[2]; [3]
  IC50: 200 to 1000 nM
[2]; [4]
  IC50: 1000 to 3000 nM

## CCN1C(=O)[C@H](NC(=O)c2cccc(C(F)(F)F)c2)[C@H](c2ccc(F)cc2)c2c(C(=O)N3CC[C@H]3C#N)nn(-c3ccccc3)c21 [Compound I-535]
[1]; Homo sapiens, TF-1, 3 h
  IC50: > 1000 nM
[2]; [3]
  IC50: 1000 to 3000 nM
[2]; [4]
  IC50: 1000 to 3000 nM

## CCN1C(=O)[C@@H](NC(=O)c2cccc(C(F)(F)F)c2)[C@@H](C2CC2)c2c(C(=O)N3CC[C@H](NC)[C@H]3C#N)nn(C3CCOCC3)c21 (relative stereo) [Compound I-687, N-((4S,5S)-3-((2S*,3S*)-2-cyano-3-(methylamino)pyrrolidine-1-carbonyl)-4-cyclopropyl-7-ethyl-6-oxo-1-(tetrahydro-2H-pyran-4-yl)-4,5,6,7-tetrahydro-1H-pyrazolo[3,4-b]pyridin-5-yl)-3-(trifluoromethyl)benzamide]
[1]; Homo sapiens, TF-1, 3 h
  IC50: ≤ 100 nM
[2]; [3]
  IC50: ≤ 200 nM
[2]; [4]
  IC50: ≤ 200 nM

## C=C(CN1CCC1)C(=O)NCc1nn(-c2ccccc2)c2c1[C@H](C1CC1)[C@H](NC(=O)c1cccc(C(F)(F)F)c1)C(=O)N2CC (stereo in doubt) [Compound I-462]
[1]; Homo sapiens, TF-1, 3 h
  IC50: ≤ 100 nM
[2]; [3]
  IC50: ≤ 200 nM
[2]; [5]
  IC50: ≤ 200 nM

## C=CC(=O)N[C@H](C)c1nn(-c2ccccc2)c2c1[C@@H](c1ccc(F)cc1)[C@H](NC(=O)c1nccc(C(F)(F)F)n1)C(=O)N2CC [Compound I-533]
[1]; Homo sapiens, TF-1, 3 h
  IC50: 100 to 1000 nM
[2]; [3]
  IC50: 200 to 1000 nM
[2]; [4]
  IC50: 200 to 1000 nM
